Assay results as given in PMC11427300, “Cryptic enzymatic assembly of peptides armed with β-lactone warheads” (Nature Chemical Biology, 2024).

Assays:
Type in all cases: biochemical
[1] = molecular target: T1, CysE (Kitasatospora cystarginea, UniProt A0A1W6R564); assay: LC-MS, tandem assay with CysF; conditions: 3a generated in situ from 2a by CysF and ATP; MgCl2, phosphate pH 7.8, 25 °C
T1 construct: C-terminal His tag (pET28-a(+)), E. coli BL21(DE3)
T1 sequence (A0A1W6R564 1-271): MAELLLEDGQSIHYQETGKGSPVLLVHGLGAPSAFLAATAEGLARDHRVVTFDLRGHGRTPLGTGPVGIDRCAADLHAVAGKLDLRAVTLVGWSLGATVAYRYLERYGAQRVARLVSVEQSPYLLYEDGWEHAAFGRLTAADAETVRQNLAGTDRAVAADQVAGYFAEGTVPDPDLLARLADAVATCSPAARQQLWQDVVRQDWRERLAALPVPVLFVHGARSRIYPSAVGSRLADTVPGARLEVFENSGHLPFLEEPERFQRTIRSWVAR

[2] = molecular target: T2, CysF (Kitasatospora cystarginea, UniProt A0A1W6R555); assay: LC-MS, hydroxylamine trapping as hydroxamic acid […]; conditions: ATP, adenylation only, no lactone formed
T2 construct: C-terminal His tag (pET21-a(+)), E. coli; 8RA0 is the apo structure, residues 1-491 mentioned
T2 sequence (A0A1W6R555 1-491): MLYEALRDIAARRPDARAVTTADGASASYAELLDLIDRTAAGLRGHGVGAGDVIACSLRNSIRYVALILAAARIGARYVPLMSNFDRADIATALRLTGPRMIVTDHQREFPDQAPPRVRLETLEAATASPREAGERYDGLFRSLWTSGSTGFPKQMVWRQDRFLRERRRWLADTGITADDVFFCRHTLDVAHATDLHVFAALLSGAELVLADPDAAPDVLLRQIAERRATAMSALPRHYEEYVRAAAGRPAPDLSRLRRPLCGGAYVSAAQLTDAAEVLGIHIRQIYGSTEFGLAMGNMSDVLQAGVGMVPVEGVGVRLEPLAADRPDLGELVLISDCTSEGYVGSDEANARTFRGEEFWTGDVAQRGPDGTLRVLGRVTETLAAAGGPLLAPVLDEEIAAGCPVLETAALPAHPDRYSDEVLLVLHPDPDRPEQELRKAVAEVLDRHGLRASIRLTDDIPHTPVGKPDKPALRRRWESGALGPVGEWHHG

[3] = molecular target: T3, CysG (Kitasatospora cystarginea, UniProt A0A1W6R556); assay: LC-MS and NMR product analysis; conditions: MgCl2, phosphate pH 7.8, 25 °C
T3 construct: C-terminal His tag (pET28-a(+)), E. coli BL21(DE3)
T3 sequence (A0A1W6R556 1-228): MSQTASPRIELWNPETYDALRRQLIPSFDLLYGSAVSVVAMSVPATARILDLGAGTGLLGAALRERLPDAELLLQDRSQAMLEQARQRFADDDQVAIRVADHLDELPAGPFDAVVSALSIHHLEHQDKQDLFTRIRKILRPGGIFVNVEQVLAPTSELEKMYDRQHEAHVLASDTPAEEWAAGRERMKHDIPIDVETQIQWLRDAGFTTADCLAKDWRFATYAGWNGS

[4] = molecular target: T2, CysF; assay: GC-MS and 1H NMR product analysis; conditions: ATP, MgCl2, phosphate pH 7.8, 25 °C; β-lactonization to 3a
[5] = molecular target: T4, BhCysFE (Bradyrhizobium huanghuaihaiense, UniProt A0A562R406); assay: LC-MS
T4 construct: gene IQ16_06114; natural fusion (CysF-like aa 1-487, linker ATPVNMR, CysE-like aa 495-768), C-terminal His tag (pET28-a(+)), E. coli
T4 sequence (A0A562R406 1-768): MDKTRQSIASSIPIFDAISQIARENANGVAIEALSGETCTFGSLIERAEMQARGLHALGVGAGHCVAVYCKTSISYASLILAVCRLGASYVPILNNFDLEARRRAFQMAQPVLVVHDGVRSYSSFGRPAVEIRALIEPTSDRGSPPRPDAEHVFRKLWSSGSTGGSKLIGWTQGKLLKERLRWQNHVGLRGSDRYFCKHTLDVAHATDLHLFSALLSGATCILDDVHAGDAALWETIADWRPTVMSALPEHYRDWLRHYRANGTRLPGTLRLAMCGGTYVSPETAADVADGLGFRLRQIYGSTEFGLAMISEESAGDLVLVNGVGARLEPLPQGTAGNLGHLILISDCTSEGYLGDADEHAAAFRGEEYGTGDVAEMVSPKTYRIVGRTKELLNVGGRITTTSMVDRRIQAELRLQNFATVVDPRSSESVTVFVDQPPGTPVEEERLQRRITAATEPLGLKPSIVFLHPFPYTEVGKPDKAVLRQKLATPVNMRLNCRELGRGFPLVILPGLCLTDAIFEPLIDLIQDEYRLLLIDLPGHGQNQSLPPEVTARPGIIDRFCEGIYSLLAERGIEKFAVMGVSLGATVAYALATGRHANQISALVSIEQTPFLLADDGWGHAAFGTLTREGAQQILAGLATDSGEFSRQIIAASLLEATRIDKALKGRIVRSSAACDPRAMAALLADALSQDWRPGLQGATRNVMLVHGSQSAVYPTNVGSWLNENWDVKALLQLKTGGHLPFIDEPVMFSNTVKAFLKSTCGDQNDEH

[6] = molecular target: T5, BelH (Streptomyces sp., UniProt A0A1W6R584); assay: LC-MS and GC-MS, cascade assay with BelI or BelR; conditions: ATP, MgCl2, phosphate pH 7.8, 25 °C; β-lactonization to 3b
T5 construct: N-terminal His tag (pET28-a(+)), E. coli BL21(DE3)
T5 sequence (A0A1W6R584 1-491): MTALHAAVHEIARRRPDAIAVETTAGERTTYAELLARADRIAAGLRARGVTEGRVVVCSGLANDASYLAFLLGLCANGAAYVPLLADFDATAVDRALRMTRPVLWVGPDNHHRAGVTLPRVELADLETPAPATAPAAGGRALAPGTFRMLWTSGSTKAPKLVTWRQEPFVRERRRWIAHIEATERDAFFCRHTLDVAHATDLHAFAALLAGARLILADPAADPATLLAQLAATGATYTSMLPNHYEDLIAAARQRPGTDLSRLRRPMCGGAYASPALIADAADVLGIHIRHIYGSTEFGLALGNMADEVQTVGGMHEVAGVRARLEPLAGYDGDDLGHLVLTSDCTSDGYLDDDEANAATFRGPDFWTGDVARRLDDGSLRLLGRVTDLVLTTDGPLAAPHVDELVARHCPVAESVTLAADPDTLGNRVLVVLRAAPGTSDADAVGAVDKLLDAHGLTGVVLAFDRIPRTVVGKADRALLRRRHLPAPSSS

COC(=O)[C@@H]1OC(=O)[C@H]1C(C)C [3a, β-lactone methyl ester 3a]
LC-MS, tandem assay with CysF [1]: tandem reaction with CysF and CysE, including ATP, resulted in the β-lactone carboxylic acid 4a

CC(C)[C@H](C(=O)O)[C@@H](O)C(=O)O [1a, malic acid 1a]
LC-MS, hydroxylamine trapping as hydroxamic acid 10 [2]: CysF can efficiently activate the C4-carboxyl of 1a
LC-MS and NMR product analysis ([3]; SAM, C1-carboxylate methylated): CysG exclusively produced the C1-methyl ester 2a from 1a and SAM

COC(=O)[C@H](O)[C@@H](C(=O)O)C(C)C [2a, C1-methyl ester 2a]
GC-MS and 1H NMR product analysis [4]: 2a was again consumed in the CysF reaction with ATP
LC-MS ([5]; ATP, lactonization and ester hydrolysis to 4a): incubated with 2a and ATP, leading to a quantitative production of 4a

CCC(C)[C@H](C(=O)O)[C@@H](O)C(=O)OC (some centres unmarked) [2b]
LC-MS and GC-MS, cascade assay with BelI or BelR [6]: GC-MS analysis of the CysGF and BelIH cascade confirmed the formation of 3a/b

Nc1ncnc2c1ncn2[C@@H]1O[C@H](COP(=O)(O)OP(=O)(O)OP(=O)(O)O)[C@@H](O)[C@H]1O [adenosine triphosphate]
LC-MS ([5]; co-substrate 2a): incubated with 2a and ATP, leading to a quantitative production of 4a

C[S+](CC[C@H](N)C(=O)O)C[C@H]1O[C@@H](n2cnc3c(N)ncnc32)[C@H](O)[C@@H]1O (some centres unmarked) [S-adenosyl methionine]
LC-MS and NMR product analysis ([3]; co-substrate 1a): CysG exclusively produced the C1-methyl ester 2a from 1a and SAM
